Here are results for two compounds from BindingDB's records for doi:10.3109/14756366.2013.804072 (University of Calgary, 2014).

Molecules are shown by their SMILES.

Some targets named below: Carbonic anhydrase 14 (Homo sapiens, UniProt Q9ULX7); Carbonic anhydrase 1 (Homo sapiens, UniProt P00915); Carbonic anhydrase 12 (Homo sapiens, UniProt O43570); Carbonic anhydrase 13 (Homo sapiens, UniProt Q8N1Q1); Carbonic anhydrase 2 (Homo sapiens, UniProt P00918); Carbonic anhydrase 3 (Homo sapiens, UniProt P07451); Carbonic anhydrase 4 (Homo sapiens, UniProt P22748); Carbonic anhydrase 6 (Homo sapiens, UniProt P23280).

Test in all cases: CA Inhibition Assay
Common to all, as to conditions: pH 7.5; 25 °C

The target of assay [1] is Carbonic anhydrase 5A, mitochondrial (Homo sapiens, UniProt P35218).
Chain of Carbonic anhydrase 5A, mitochondrial (P35218 whole entry): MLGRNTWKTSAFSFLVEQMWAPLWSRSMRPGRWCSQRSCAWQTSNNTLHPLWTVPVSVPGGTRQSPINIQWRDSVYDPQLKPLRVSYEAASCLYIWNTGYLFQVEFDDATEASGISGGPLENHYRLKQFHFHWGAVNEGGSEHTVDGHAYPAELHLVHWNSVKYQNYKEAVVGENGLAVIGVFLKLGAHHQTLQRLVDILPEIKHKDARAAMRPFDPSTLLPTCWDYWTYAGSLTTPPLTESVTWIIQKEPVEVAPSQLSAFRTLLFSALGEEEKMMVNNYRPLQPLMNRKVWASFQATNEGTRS
Method: (§1) An Applied Photophysics stopped-flow instrument has been used for assaying the CA catalysed CO2 hydration activity. […] The CO2 concentrations ranged from 1.7 to 17 mM for the determination of the kinetic parameters and inhibition constants. […] The uncatalyzed rates were determined in the same manner and subtracted from the total observed rates. Stock solutions of inhibitor (0.1 mM) were prepared in distilled deionized water and dilutions up to 0.01nM were done thereafter with distilled-deionized water.
Assay [2] has as its target Carbonic anhydrase 5B, mitochondrial (Homo sapiens, UniProt Q9Y2D0).
Method: as §1

Chain of Carbonic anhydrase 14 (Q9ULX7 whole entry): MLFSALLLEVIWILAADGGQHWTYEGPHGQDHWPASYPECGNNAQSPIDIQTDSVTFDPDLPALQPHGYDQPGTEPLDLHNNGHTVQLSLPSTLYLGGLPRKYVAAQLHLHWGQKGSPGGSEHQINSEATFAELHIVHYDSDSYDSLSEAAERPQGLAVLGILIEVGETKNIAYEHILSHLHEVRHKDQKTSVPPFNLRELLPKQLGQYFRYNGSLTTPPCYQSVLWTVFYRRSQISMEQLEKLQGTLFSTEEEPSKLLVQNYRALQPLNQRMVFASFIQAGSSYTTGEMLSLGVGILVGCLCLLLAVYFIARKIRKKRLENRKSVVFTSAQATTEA
Chain of Carbonic anhydrase 6 (P23280 whole entry): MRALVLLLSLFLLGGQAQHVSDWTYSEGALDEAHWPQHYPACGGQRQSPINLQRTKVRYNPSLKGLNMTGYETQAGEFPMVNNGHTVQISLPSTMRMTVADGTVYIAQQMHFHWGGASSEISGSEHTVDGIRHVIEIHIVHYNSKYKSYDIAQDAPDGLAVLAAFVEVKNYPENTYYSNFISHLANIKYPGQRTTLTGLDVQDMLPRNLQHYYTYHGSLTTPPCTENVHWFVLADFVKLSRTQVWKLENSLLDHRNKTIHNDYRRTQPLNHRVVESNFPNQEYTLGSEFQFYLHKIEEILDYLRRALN
Chain of Carbonic anhydrase 13 (Q8N1Q1 whole entry): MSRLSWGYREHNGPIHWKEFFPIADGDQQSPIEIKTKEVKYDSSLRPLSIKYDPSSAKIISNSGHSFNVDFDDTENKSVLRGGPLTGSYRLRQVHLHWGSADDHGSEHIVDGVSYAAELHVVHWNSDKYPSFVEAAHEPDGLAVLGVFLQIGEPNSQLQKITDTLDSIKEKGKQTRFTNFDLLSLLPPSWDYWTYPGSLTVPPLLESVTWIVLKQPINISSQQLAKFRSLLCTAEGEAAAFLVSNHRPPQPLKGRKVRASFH
Chain of Carbonic anhydrase 4 (P22748 whole entry): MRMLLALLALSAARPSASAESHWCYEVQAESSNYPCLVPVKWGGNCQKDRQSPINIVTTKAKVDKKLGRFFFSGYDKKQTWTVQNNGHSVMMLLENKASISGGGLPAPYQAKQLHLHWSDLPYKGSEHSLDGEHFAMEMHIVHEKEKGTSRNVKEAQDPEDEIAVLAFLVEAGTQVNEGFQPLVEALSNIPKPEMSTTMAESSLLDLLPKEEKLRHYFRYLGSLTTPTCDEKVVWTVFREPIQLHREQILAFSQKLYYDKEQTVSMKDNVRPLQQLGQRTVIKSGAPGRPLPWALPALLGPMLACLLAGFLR
Chain of Carbonic anhydrase 1 (P00915 whole entry): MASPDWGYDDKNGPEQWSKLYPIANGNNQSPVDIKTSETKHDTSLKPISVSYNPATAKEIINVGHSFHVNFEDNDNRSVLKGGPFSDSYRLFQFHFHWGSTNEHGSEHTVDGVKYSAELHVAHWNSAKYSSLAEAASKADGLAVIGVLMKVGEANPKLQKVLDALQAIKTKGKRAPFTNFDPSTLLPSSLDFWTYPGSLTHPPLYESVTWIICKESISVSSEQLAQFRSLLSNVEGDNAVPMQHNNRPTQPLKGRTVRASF
Chain of Carbonic anhydrase 5B, mitochondrial (Q9Y2D0 whole entry): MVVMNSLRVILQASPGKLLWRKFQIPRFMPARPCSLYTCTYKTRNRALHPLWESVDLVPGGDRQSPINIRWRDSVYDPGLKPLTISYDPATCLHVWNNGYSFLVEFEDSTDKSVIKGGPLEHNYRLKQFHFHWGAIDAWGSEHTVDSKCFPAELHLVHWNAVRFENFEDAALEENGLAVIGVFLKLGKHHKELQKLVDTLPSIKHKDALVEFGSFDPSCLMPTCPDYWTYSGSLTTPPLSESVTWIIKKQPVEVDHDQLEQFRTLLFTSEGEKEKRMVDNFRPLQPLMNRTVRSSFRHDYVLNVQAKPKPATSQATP
Chain of Carbonic anhydrase 3 (P07451 whole entry): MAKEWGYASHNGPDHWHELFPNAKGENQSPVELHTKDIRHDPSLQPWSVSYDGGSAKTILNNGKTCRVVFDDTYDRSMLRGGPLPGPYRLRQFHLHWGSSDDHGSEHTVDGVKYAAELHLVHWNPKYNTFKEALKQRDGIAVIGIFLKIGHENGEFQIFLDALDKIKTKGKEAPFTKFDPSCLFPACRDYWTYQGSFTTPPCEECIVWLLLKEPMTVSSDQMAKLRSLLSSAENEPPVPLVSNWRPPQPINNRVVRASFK
Chain of Carbonic anhydrase 12 (O43570 whole entry): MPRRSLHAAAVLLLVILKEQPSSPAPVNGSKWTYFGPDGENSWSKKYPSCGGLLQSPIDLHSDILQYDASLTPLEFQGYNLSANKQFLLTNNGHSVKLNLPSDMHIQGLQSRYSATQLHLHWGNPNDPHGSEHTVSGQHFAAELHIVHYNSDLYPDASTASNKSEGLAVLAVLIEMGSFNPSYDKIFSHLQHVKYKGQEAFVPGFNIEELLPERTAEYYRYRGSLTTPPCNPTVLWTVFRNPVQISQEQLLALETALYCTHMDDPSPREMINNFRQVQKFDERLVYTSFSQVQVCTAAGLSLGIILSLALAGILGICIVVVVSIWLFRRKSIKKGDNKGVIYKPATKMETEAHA
Method for Carbonic anhydrase 12: as §1
Method for Carbonic anhydrase 13: as §1
Method for Carbonic anhydrase 14: as §1
Method for Carbonic anhydrase 2: as §1
Method for Carbonic anhydrase 3: as §1
Method for Carbonic anhydrase 4: as §1
Method for Carbonic anhydrase 6: as §1

A word on the Ki: it is a measure of affinity in units of concentration, obtained from inhibition or displacement. At Carbonic anhydrase 14, `NS(=O)(=O)c1cc(Cl)c(Cl)c(S(N)(=O)=O)c1` [Dichlorophenamide, DCP] showed a Ki of 340 nM.
For the compound `CC1(C)[C@@H](O)C[C@H]2[C@](C)(O)[C@@H]3CCC4[C@@H](O)C3(C[C@@H](O)[C@@]21O)C[C@@]4(C)O` (stereo partly specified) [Grayanotoxin III (GTX3)], the Ki on Carbonic anhydrase 1 was 8010 nM; at Carbonic anhydrase 12, 2150 nM; on Carbonic anhydrase 13, 690 nM; on Carbonic anhydrase 14, 1470 nM; on Carbonic anhydrase 2, 6130 nM; at Carbonic anhydrase 3, 760 nM. Besides, the inhibition constant (Ki) on Carbonic anhydrase 4 amounted to 510 nM; in [1], 1140 nM; in assay [2], 740 nM; on Carbonic anhydrase 6, 860 nM.
